Values of other authors in patent US20200000760A1, “METHOD FOR TREATING OVERACTIVE BLADDERS AND A DEVICE FOR STORAGE AND ADMINISTRATION OF TOPICAL OXYBUTYNIN COMPOSITIONS” (Allergan Sales, LLC, priority 2009, published 2020).

Tests used:
[1] = transdermal administration compared to oral administration
[2] = transdermal administration compared to oral administration; remark: listed apart in the source

oxybutynin:desethyloxybutynin ratio in the plasma [2]: reduced
SMILES: CCN(CC)CC#CCOC(=O)C(O)(c1ccccc1)C1CCCCC1 (centres unmarked) [oxybutynin]
adverse events [1]: less adverse events
